pEC50: −log10 of the molar value.

The subject of the test is BJAB cells. Description: BJAB cell proliferation (Cell Titer Glo). It counts as cell-based. The conditions noted are these: Homo sapiens, read-out: EC50. The procedure, abridged: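 BJAB cells exposed to serially diluted compounds (0.1% DMSO final) for about 72 h at 37 °C. Proliferation read by Cell Titer Glo luminescence as percent of untreated controls; EC50 from non-linear regression of dose-response data.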
For orientation: In ATP-based viability assays light output follows the ATP content of the culture.
Take `Cc1cc(OC2COC2)cc(-c2c(C)nn(-c3nc(-c4ccc(Cl)c(Cl)c4)c(SC(C)C)s3)c2C(=O)O)c1` [Compound 98, 1-(4-(3,4-dichlorophenyl)-5-(isopropylthio)thiazol-2-yl)-3-methyl-4-(3-methyl-5-(oxetan-3-yloxy)phenyl)-1H-pyrazole-5-carboxylic Acid]: the pEC50 was 5.30 to 6.00.
Take `Cc1cc(-c2c(C)nn(-c3nc(-c4ccc(Cl)c(Cl)c4)c(SC(C)C)s3)c2C(=O)O)cc(N(C)C)c1` [Compound 99, 1-(4-(3,4-dichlorophenyl)-5-(isopropylthio)thiazol-2-yl)-4-(3-(dimethylamino)-5-methylphenyl)-3-methyl-1H-pyrazole-5-carboxylic acid]: the pEC50 is 5.00 to 5.30.
Consider `Cc1cc(-c2c(C)nn(-c3nc(-c4ccc(Cl)c(Cl)c4)c(SC(C)C)s3)c2C(=O)O)cc(-n2ccnc2)c1` [Compound 100, 4-(3-(1H-imidazol-1-yl)-5-methylphenyl)-1-(4-(3,4-dichlorophenyl)-5-(isopropylthio)thiazol-2-yl)-3-methyl-1H-pyrazole-5-carboxylic Acid], for which the pEC50 was 5.30 to 6.00.
Take `Cc1cc(-c2c(C)nn(-c3nc(-c4ccc(Cl)c(Cl)c4)c(SC(C)C)s3)c2C(=O)O)cc(N2CCC2)n1` [Compound 101, 4-(2-(azetidin-1-yl)-6-methylpyridin-4-yl)-1-(4-(3,4-dichlorophenyl)-5-(isopropylthio)thiazol-2-yl)-3-methyl-1H-pyrazole-5-carboxylic acid]: the pEC50 was 5.30 to 6.00.
On to `Cc1cc(-c2c(C)nn(-c3nc(-c4ccc(Cl)c(Cl)c4)c(SC(C)C)s3)c2C(=O)O)cc(N2CCOCC2)n1` [Compound 102, 1-(4-(3,4-dichlorophenyl)-5-(isopropylthio)thiazol-2-yl)-3-methyl-4-(2-methyl-6-morpholinopyridin-4-yl)-1H-pyrazole-5-carboxylic Acid], for which the pEC50 is 5.00 to 5.30.
With `COc1cccc(-c2nc(-n3nc(C)c(Cc4ccccc4[N+](=O)[O-])c3C(=O)O)sc2SC(C)C)c1` [Compound 103, 1-(5-(isopropylthio)-4-(3-methoxyphenyl)thiazol-2-yl)-3-methyl-4-(2-nitrobenzyl)-1H-pyrazole-5-carboxylic Acid] the figure was less than 4.10; with `Cc1nn(-c2nc(-c3ccc(Cl)c(Cl)c3)c(SCCC(C)C)s2)c(C(=O)O)c1Cc1ccccc1[N+](=O)[O-]` [Compound 104, 1-(4-(3,4-dichlorophenyl)-5-(isopentylthio)thiazol-2-yl)-3-methyl-4-(2-nitrobenzyl)-1H-pyrazole-5-carboxylic acid], 4.30 to 4.60; with `COc1cccc(-c2nc(-n3nc(C)c(Cc4ccccc4NS(C)(=O)=O)c3C(=O)O)sc2SC(C)C)c1` [Compound 105, 1-(5-(isopropylthio)-4-(3-methoxyphenyl)thiazol-2-yl)-3-methyl-4-(2-(methylsulfonamido)benzyl)-1H-pyrazole-5-carboxylic acid], less than 4.10.
As to `CCC(C)Sc1sc(-n2nc(C)c(Cc3ccccc3[N+](=O)[O-])c2C(=O)O)nc1-c1ccc(Cl)c(Cl)c1` (centres unmarked) [Compound 106, 1-(5-(sec-butylthio)-4-(3,4-dichlorophenyl)thiazol-2-yl)-3-methyl-4-(2-nitrobenzyl)-1H-pyrazole-5-carboxylic acid], the negative-log EC50 (pEC50) was 4.60 to 5.00.
As to `Cc1nn(-c2nc(-c3ccc(Cl)c(Cl)c3)c(SC(C)C)s2)c(C(=O)O)c1-c1ccc2cc[nH]c2c1` [Compound 107, 1-(4-(3,4-dichlorophenyl)-5-(isopropylthio)thiazol-2-yl)-4-(1H-indol-6-yl)-3-methyl-1H-pyrazole-5-carboxylic acid], the pEC50 was 4.30 to 4.60.
Regarding `Cc1nn(-c2nc(-c3ccc(Cl)c(Cl)c3)c(SC(C)C)s2)c(C(=O)O)c1-c1cccc([N+](=O)[O-])c1` [Compound 108, 1-(4-(3,4-dichlorophenyl)-5-(isopropylthio)thiazol-2-yl)-3-methyl-4-(3-nitrophenyl)-1H-pyrazole-5-carboxylic Acid], the negative logarithm of the EC50 (pEC50) is 5.00 to 5.30.
The value for `Cc1nn(-c2nc(-c3ccc(Cl)c(Cl)c3)c(SC(C)C)s2)c(C(=O)O)c1-c1cn[nH]c1` [Compound 109, 2-(4-(3,4-dichlorophenyl)-5-(isopropylthio)thiazol-2-yl)-5-methyl-4,4′-bi(2H-pyrazole)-3-carboxylic acid] was 4.30 to 4.60; that for `Cc1nn(-c2nc(-c3ccc(Cl)c(Cl)c3)c(SC(C)C)s2)c(C(=O)O)c1-c1c[nH]c2ccccc12` [Compound 110, 1-(4-(3,4-dichlorophenyl)-5-(isopropylthio)thiazol-2-yl)-4-(1H-indol-3-yl)-3-methyl-1H-pyrazole-5-carboxylic acid] was 4.60 to 5.00.
The value for `Cc1nn(-c2nc(-c3ccc(Cl)c(Cl)c3)c(SC(C)C)s2)c(C(=O)O)c1-c1ccccc1Cl` [Compound 111, 4-(2-chlorophenyl)-1-(4-(3,4-dichlorophenyl)-5-(isopropylthio)thiazol-2-yl)-3-methyl-1H-pyrazole-5-carboxylic acid] was 4.60 to 5.00; that for `Cc1nn(-c2nc(-c3ccc(Cl)c(Cl)c3)c(SC(C)C)s2)c(C(=O)O)c1-c1cccc(Cl)c1` [Compound 112, 4-(3-chlorophenyl)-1-(4-(3,4-dichlorophenyl)-5-(isopropylthio)thiazol-2-yl)-3-methyl-1H-pyrazole-5-carboxylic Acid] was 5.30 to 6.00.
The value for `Cc1nn(-c2nc(-c3ccc(Cl)c(Cl)c3)c(SC(C)C)s2)c(C(=O)O)c1-c1ccc(Cl)cc1` [Compound 113, 4-(4-chlorophenyl)-1-(4-(3,4-dichlorophenyl)-5-(isopropylthio)thiazol-2-yl)-3-methyl-1H-pyrazole-5-carboxylic acid] was 4.60 to 5.00.
For the compound `COc1ccccc1-c1c(C)nn(-c2nc(-c3ccc(Cl)c(Cl)c3)c(SC(C)C)s2)c1C(=O)O` [Compound 114, 1-(4-(3,4-dichlorophenyl)-5-(isopropylthio)thiazol-2-yl)-4-(2-methoxyphenyl)-3-methyl-1H-pyrazole-5-carboxylic acid], the negative logarithm of the EC50 (pEC50) was 4.60 to 5.00.
The value for `COc1cccc(-c2c(C)nn(-c3nc(-c4ccc(Cl)c(Cl)c4)c(SC(C)C)s3)c2C(=O)O)c1` [Compound 115, 1-(4-(3,4-dichlorophenyl)-5-(isopropylthio)thiazol-2-yl)-4-(3-methoxyphenyl)-3-methyl-1H-pyrazole-5-carboxylic Acid] was 5.30 to 6.00.
On to `COc1ccc(-c2c(C)nn(-c3nc(-c4ccc(Cl)c(Cl)c4)c(SC(C)C)s3)c2C(=O)O)cc1` [Compound 116, 1-(4-(3,4-dichlorophenyl)-5-(isopropylthio)thiazol-2-yl)-4-(4-methoxyphenyl)-3-methyl-1H-pyrazole-5-carboxylic acid], for which the pEC50 was 4.60 to 5.00.
As to `Cc1ccccc1-c1c(C)nn(-c2nc(-c3ccc(Cl)c(Cl)c3)c(SC(C)C)s2)c1C(=O)O` [Compound 117, 1-(4-(3,4-dichlorophenyl)-5-(isopropylthio)thiazol-2-yl)-3-methyl-4-o-tolyl-1H-pyrazole-5-carboxylic acid], the pEC50 was 5.00 to 5.30.
In the case of `Cc1cccc(-c2c(C)nn(-c3nc(-c4ccc(Cl)c(Cl)c4)c(SC(C)C)s3)c2C(=O)O)c1` [Compound 118, 1-(4-(3,4-dichlorophenyl)-5-(isopropylthio)thiazol-2-yl)-3-methyl-4-m-tolyl-1H-pyrazole-5-carboxylic Acid], the pEC50 was 5.30 to 6.00.
`Cc1ccc(-c2c(C)nn(-c3nc(-c4ccc(Cl)c(Cl)c4)c(SC(C)C)s3)c2C(=O)O)cc1` [Compound 119, 1-(4-(3,4-dichlorophenyl)-5-(isopropylthio)thiazol-2-yl)-3-methyl-4-p-tolyl-1H-pyrazole-5-carboxylic acid]: the negative logarithm of the EC50 (pEC50) is 4.60 to 5.00.
For the compound `CC(=O)Nc1ccc(-c2c(C)nn(-c3nc(-c4ccc(Cl)c(Cl)c4)c(SC(C)C)s3)c2C(=O)O)cc1` [Compound 120, 4-(4-acetamidophenyl)-1-(4-(3,4-dichlorophenyl)-5-(isopropylthio)thiazol-2-yl)-3-methyl-1H-pyrazole-5-carboxylic acid], the pEC50 is less than 4.30.
On to `Cc1nn(-c2nc(-c3ccc(Cl)c(Cl)c3)c(SC(C)C)s2)c(C(=O)O)c1Cc1ccccc1NS(C)(=O)=O` [Compound 121, 1-(4-(3,4-dichlorophenyl)-5-(isopropylthio)thiazol-2-yl)-3-methyl-4-(2-(methylsulfonamido)benzyl)-1H-pyrazole-5-carboxylic acid], for which the negative-log EC50 (pEC50) was less than 4.30.
The value for `Cc1nn(-c2nc(-c3ccc(Cl)c(Cl)c3)c(SC(C)C)s2)c(C(=O)O)c1Cc1ccccc1NS(=O)(=O)N(C)C` [Compound 122, 1-(4-(3,4-dichlorophenyl)-5-(isopropylthio)thiazol-2-yl)-4-(2-(N,N-dimethylsulfamoylamino)benzyl)-3-methyl-1H-pyrazole-5-carboxylic acid] was 4.60 to 5.00; that for `Cc1nn(-c2nc(-c3ccc(Cl)c(Cl)c3)c(SC(C)C)s2)c(C(=O)O)c1-c1ccc(N)cc1` [Compound 123, 4-(4-aminophenyl)-1-(4-(3,4-dichlorophenyl)-5-(isopropylthio)thiazol-2-yl)-3-methyl-1H-pyrazole-5-carboxylic acid] was 4.30 to 4.60; that for `Cc1nn(-c2nc(-c3ccc(Cl)c(Cl)c3)c(SC(C)C)s2)c(C(=O)O)c1-c1ccc(NS(C)(=O)=O)cc1` [Compound 124, 1-(4-(3,4-dichlorophenyl)-5-(isopropylthio)thiazol-2-yl)-3-methyl-4-(4-(methylsulfonamido)phenyl)-1H-pyrazole-5-carboxylic acid] was less than 4.30.
The value for `Cc1nn(-c2nc(-c3ccc(Cl)c(Cl)c3)c(SC(C)C)s2)c(C(=O)O)c1-c1cccc(NS(C)(=O)=O)c1` [Compound 125, 1-(4-(3,4-dichlorophenyl)-5-(isopropylthio)thiazol-2-yl)-3-methyl-4-(3-(methylsulfonamido)phenyl)-1H-pyrazole-5-carboxylic acid] was less than 4.30.
With `COCCn1cc(-c2c(C)nn(-c3nc(-c4ccc(Cl)c(Cl)c4)c(SC(C)C)s3)c2C(=O)O)cn1` [Compound 126, 2-(4-(3,4-dichlorophenyl)-5-(isopropylthio)thiazol-2-yl)-2′-(2-methoxyethyl)-5-methyl-4,4′-bi(2H-pyrazole)-3-carboxylic acid] the figure was 4.60 to 5.00.

As a reminder, the pEC50 is the negative decadic logarithm of the EC50, by convention in mol/L.

Source of the values: patent publication US10537558B2 (Bantam Pharmaceutical, LLC, priority 2015, dated 2020).
